From ChEMBL document CHEMBL3352400, “4-Functionalized 1,3-diarylpyrazoles bearing 6-aminosulfonylbenzothiazole moiety as potent inhibitors of carbonic anhydrase isoforms hCA I, II, IX and XII” (Bioorg Med Chem, 2014)
pKi: −log10 of the molar value.

Assays:
[1] = molecular target: Carbonic anhydrase 9 (Homo sapiens, UniProt Q16790); experiment: Inhibition of human carbonic anhydrase 9 by stopped flow CO2 hydrase assay method
[2] = molecular target: Carbonic anhydrase 1 (Homo sapiens, UniProt P00915); experiment: Inhibition of human carbonic anhydrase 1 by stopped flow CO2 hydrase assay method
[3] = molecular target: Carbonic anhydrase 12 (Homo sapiens, UniProt O43570); experiment: Inhibition of human carbonic anhydrase 12 by stopped flow CO2 hydrase assay method
Carbonic anhydrase 12, sequence (O43570 whole entry): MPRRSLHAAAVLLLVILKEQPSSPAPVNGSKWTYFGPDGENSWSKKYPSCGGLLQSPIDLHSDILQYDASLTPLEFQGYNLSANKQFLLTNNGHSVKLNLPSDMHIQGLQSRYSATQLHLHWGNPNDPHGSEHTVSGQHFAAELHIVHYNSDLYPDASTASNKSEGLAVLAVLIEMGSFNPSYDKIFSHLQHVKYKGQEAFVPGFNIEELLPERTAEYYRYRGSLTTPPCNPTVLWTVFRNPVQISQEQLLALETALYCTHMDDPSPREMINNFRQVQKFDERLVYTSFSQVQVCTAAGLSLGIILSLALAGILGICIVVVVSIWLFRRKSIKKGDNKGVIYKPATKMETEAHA

Carbonic anhydrase 1, sequence (P00915 whole entry): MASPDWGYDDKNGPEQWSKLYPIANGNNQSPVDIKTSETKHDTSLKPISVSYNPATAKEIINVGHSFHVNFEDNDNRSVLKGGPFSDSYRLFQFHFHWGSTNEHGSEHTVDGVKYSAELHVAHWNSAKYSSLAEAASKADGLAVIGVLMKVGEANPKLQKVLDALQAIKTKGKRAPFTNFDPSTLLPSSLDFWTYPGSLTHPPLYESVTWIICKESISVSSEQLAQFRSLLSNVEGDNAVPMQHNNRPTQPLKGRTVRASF

| Structure (SMILES) | pKi [1] | pKi [2] | pKi [3] |
| --- | --- | --- | --- |
| COc1ccc(-c2nn(-c3nc4ccc(S(N)(=O)=O)cc4s3)cc2C#N)cc1 | 6.95 | < 4.30 |  |
| NS(=O)(=O)c1ccc2nc(-n3cc(C=O)c(-c4ccc(F)cc4)n3)sc2c1 |  |  | < 5.00 |
| NS(=O)(=O)c1ccc2nc(-n3cc(/C=N/O)c(-c4ccc(Cl)cc4)n3)sc2c1 | 6.82 |  |  |
| NS(=O)(=O)c1ccc2nc(-n3cc(C(=O)O)c(-c4ccccc4)n3)sc2c1 | 6.12 |  |  |
| NS(=O)(=O)c1ccc2nc(-n3cc(C(=O)O)c(-c4ccc(F)cc4)n3)sc2c1 | 7.20 |  |  |
| Cc1ccc(-c2nn(-c3nc4ccc(S(N)(=O)=O)cc4s3)cc2C#N)cc1 | 6.73 | < 4.30 |  |
| N#Cc1cn(-c2nc3ccc(S(N)(=O)=O)cc3s2)nc1-c1ccc(F)cc1 | 6.13 |  |  |
| Cc1ccc(-c2nn(-c3nc4ccc(S(N)(=O)=O)cc4s3)cc2C=O)cc1 | 6.16 |  |  |
| NS(=O)(=O)c1ccc2nc(-n3cc(C(=O)O)c(-c4ccc(Cl)cc4)n3)sc2c1 | 8.55 |  |  |
| Cc1ccc(-c2nn(-c3nc4ccc(S(N)(=O)=O)cc4s3)cc2C(=O)O)cc1 | 6.96 |  |  |

Continued, values first:

| pKi [1] | pKi [2] | pKi [3] | Structure (SMILES) |
| --- | --- | --- | --- |
| 6.07 |  |  | COc1ccc(-c2nn(-c3nc4ccc(S(N)(=O)=O)cc4s3)cc2C(=O)O)cc1 |
| 7.22 |  |  | NS(=O)(=O)c1ccc2nc(-n3cc(C(=O)O)c(-c4ccc([N+](=O)[O-])cc4)n3)sc2c1 |
| 5.68 |  |  | NS(=O)(=O)c1ccc2nc(-n3cc(C=O)c(-c4ccc([N+](=O)[O-])cc4)n3)sc2c1 |
| 6.64 |  |  | COc1ccc(-c2nn(-c3nc4ccc(S(N)(=O)=O)cc4s3)cc2C=O)cc1 |
| 7.04 | < 4.30 |  | COc1ccc(-c2nn(-c3nc4ccc(S(N)(=O)=O)cc4s3)cc2/C=N/O)cc1 |
| 6.94 |  |  | NS(=O)(=O)c1ccc2nc(-n3cc(/C=N/O)c(-c4ccccc4)n3)sc2c1 |
| 7.09 |  |  | N#Cc1cn(-c2nc3ccc(S(N)(=O)=O)cc3s2)nc1-c1ccccc1 |
| 6.87 |  |  | Cc1ccc(-c2nn(-c3nc4ccc(S(N)(=O)=O)cc4s3)cc2/C=N/O)cc1 |
| 5.76 |  |  | NS(=O)(=O)c1ccc2nc(-n3cc(C=O)c(-c4ccccc4)n3)sc2c1 |
| 6.07 | < 4.30 |  | N#Cc1cn(-c2nc3ccc(S(N)(=O)=O)cc3s2)nc1-c1ccc([N+](=O)[O-])cc1 |
| 6.65 | < 4.30 |  | N#Cc1cn(-c2nc3ccc(S(N)(=O)=O)cc3s2)nc1-c1ccc(Cl)cc1 |
| 6.65 |  |  | NS(=O)(=O)c1ccc2nc(-n3cc(/C=N/O)c(-c4ccc(F)cc4)n3)sc2c1 |
| 5.77 |  |  | NS(=O)(=O)c1ccc2nc(-n3cc(C=O)c(-c4ccc(Cl)cc4)n3)sc2c1 |
